Assay results from patent publication US20090030086A1, “ANTIMICROBIAL AGENTS” (priority 2005, published 2009).
In brackets after ≈: the same amount, converted by molar mass. Where two headings read alike, the source gives them in different places.

Columns and labels:
S. aureus ATCC 29213 [1] = assay: MBC assay; assay type: cell-based, Staphylococcus aureus; conditions: for MBC: Staphylococcus aureus
Procedure: (§1) The staphylococci and enterococci were cultured and maintained on Mueller-Hinton Medium (agar and broth) at pH 7.2; they were incubated aerobically at 37° C. for 24 hours.
(§2) This assay, normally carried out after an MIC assay, determines the minimum concentration of a compound that is lethal to the micro-organism being tested.
(§3) These samples were then individually sub-cultured on non-selective agar medium, under the incubation conditions described above. Following incubation they were examined visually for bacterial growth.
(§4) The following experiments all used S. aureus ATCC 29213 as the test organism. MIC, MBC and DDA assays, as described above, were carried out using a range of different benzoquinones and hydroquinones. Supplemented DDA assays, in the presence of salt, lipid and blood, were also conducted.

S. aureus ATCC 29213 [2] = assay: Supplemented disc diffusion assay; assay type: cell-based, Staphylococcus aureus; conditions: Staphylococcus aureus, ATCC29213, 24 h
Procedure: as §1
(§5) A sterile paper disc was impregnated with a sample of the test compound and a minimum of 30 minutes allowed for the solvents to evaporate as far as possible. The disc was then placed on an agar plate onto which the test micro-organism had been inoculated. The plate was then incubated under the conditions described above, following which it was examined visually for signs of bacterial growth. […] The diameter of this zone of “inhibition” was measured using a ProtoCOL™ automated zone sizer (Synbiosis, Cambridge, UK).
(§6) Performance under these conditions can provide a more reliable indication of activity on topical application. For assays conducted using S. aureus strains, the supplements were defibrinated horse blood (5% v/v), lipid (Tween™ 80 at 1% v/v) and sodium chloride (100 mM). For those using Propionibacterium spp. strains, the supplements were lipid (Tween™ 80 at 1% v/v) and sodium chloride (100 mM).
as §4
(§7) For most DDA assays, 200 μg of each compound was loaded onto each disc.

P. acnes NCTC 737 [3] = assay: Disc diffusion assay (DDA); assay type: cell-based, Propionibacterium acnes; conditions: Cutibacterium acnes
Procedure: (§8) The Propionibacterium spp organisms were cultured and maintained on Wilkins-Chalgren Anaerobe Medium (agar and broth) at pH 6.0; cultures were incubated anaerobically at 37° C. for 72 hours.
as §5
(§9) The area of the zone of inhibition was calculated from the measured zone diameter (D) using the formula π(D/2)^2.
as §7

P. acnes NCTC 737 [4] = assay: MIC assay; assay type: cell-based, Propionibacterium acnes; conditions: for MIC: Cutibacterium acnes
Procedure: 2. Propionibacterium spp.—the principal propionibacterial strain used in these studies was Propionibacterium acnes NCTC 737.
as §8
(§10) This is a standard international method for quantitatively assessing the antimicrobial activity of a compound in a liquid medium. The method used a 96-well microtitre plate, capable of holding about 200 μl of liquid per well. […] The culture media were as described above for the relevant test organisms.
(§11) The wells were inoculated with a liquid suspension of freshly grown micro-organism and incubated under the conditions described above. After incubation, the microtitre plate was examined visually (with the aid of a light box) for cloudiness in each well, which would indicate microbial growth. The MIC value was recorded as the lowest concentration of test compound required to inhibit microbial growth, i.e., the lowest concentration for which the liquid in the well remained clear.
(§12) The assays were conducted in duplicate and included both negative (culture medium only) and positive (culture medium, diluting solvent and inoculum) controls.
(§13) MIC, MBC and DDA assays, as described above, were carried out using a range of different benzoquinones and hydroquinones. Supplemented DDA assays, in the presence of salt and lipid, were also conducted.

S. aureus ATCC 29213 [5] = assay: Disc diffusion assay (DDA); assay type: cell-based, Staphylococcus aureus; conditions: Staphylococcus aureus
Procedure: as §1, §5, §9, §7

P. acnes NCTC 737 [6] = assay: MBC assay; assay type: cell-based, Propionibacterium acnes; conditions: for MBC: Cutibacterium acnes, NCTC737
Procedure: as §8, §2, §3, §13

S. aureus ATCC 29213 [7] = assay: MIC assay; assay type: cell-based, Staphylococcus aureus; conditions: for MIC: Staphylococcus aureus
Procedure: 1. Staphylococcus aureus—the principal staphylococcal test micro-organism used in these studies was Staphylococcus aureus ATCC 29213. This strain is the one recommended for QC/QA purposes in Minimum Inhibitory Concentration (MIC) assays by the US Clinical and Laboratory Standards Institute (formerly the NCCLS), an FDA-recognised body.
as §1, §10, §11, §12, §4

P. acnes NCTC 737 [8] = assay: Supplemented disc diffusion assay; assay type: cell-based, Propionibacterium acnes; conditions: for zone of inhibition at 200 µg/disc: Cutibacterium acnes, NCTC737, 72 h
Procedure: as §8, §5, §6, §13, §7

[9] = NCTC737, read-out: DDA (diameter of zone of inhibition)
[10] = ATCC29213, read-out: DDA (diameter of zone of inhibition)

COC1=CC(=O)C=C(OC)C1=O [2,6-dimethoxy-p-benzoquinone]
MIC/MBC ratio (S. aureus ATCC 29213 [1]): 0.5
MBC (S. aureus ATCC 29213 [1]; ATCC29213): 15.6 µg/mL (≈ 92.8 µM)
zone of inhibition at 200 µg/disc (S. aureus ATCC 29213 [2]; read-out: DDA + blood): 17.2 mm
zone of inhibition at 200 µg/disc (S. aureus ATCC 29213 [2]; read-out: DDA + lipid): 23.7 mm
zone of inhibition at 200 µg/disc (S. aureus ATCC 29213 [2]; read-out: DDA + salt): 22.2 mm
zone of inhibition at 200 µg/disc (P. acnes NCTC 737 [3]; [9]): 0 mm
MIC (P. acnes NCTC 737 [4]; NCTC737, 72 h, pH 6): 15.6 µg/mL (≈ 92.8 µM)
zone of inhibition at 200 µg/disc (S. aureus ATCC 29213 [5]; [10]): 22.2 mm
MBC (P. acnes NCTC 737 [6]): 31.2 µg/mL (≈ 186 µM)
MIC/MBC ratio (P. acnes NCTC 737 [6]; P. acnes NCTC 737): 0.5
activity against S. aureus ATCC 29213 (in words) (S. aureus ATCC 29213 [7]): strongly so
MIC (S. aureus ATCC 29213 [7]; ATCC29213, 24 h, pH 7.2): 7.8 µg/mL (≈ 46.4 µM)
zone of inhibition at 200 µg/disc (P. acnes NCTC 737 [8]; read-out: DDA + lipid): 15.6 mm
zone of inhibition at 200 µg/disc (P. acnes NCTC 737 [8]; read-out: DDA + salt): 16.5 mm

CC1=C(Br)C(=O)C(C(C)C)=C(Br)C1=O [2,5-dibromo-6-isopropyl-3-methyl-p-benzoquinone]
MIC/MBC ratio (S. aureus ATCC 29213 [1]): 0.5
MBC (S. aureus ATCC 29213 [1]; ATCC29213): 1.95 µg/mL (≈ 6.06 µM)
zone of inhibition at 200 µg/disc (S. aureus ATCC 29213 [2]; read-out: DDA + blood): 19.3 mm
zone of inhibition at 200 µg/disc (S. aureus ATCC 29213 [2]; read-out: DDA + lipid): 23 mm
zone of inhibition at 200 µg/disc (S. aureus ATCC 29213 [2]; read-out: DDA + salt): 42.3 mm
zone of inhibition at 200 µg/disc (P. acnes NCTC 737 [3]; [9]): > 90 mm
activity against P. acnes NCTC 737 (in words) (P. acnes NCTC 737 [4]): strongly so
MIC (P. acnes NCTC 737 [4]; NCTC737, 72 h, pH 6): 0.98 µg/mL (≈ 3.04 µM)
zone of inhibition at 200 µg/disc (S. aureus ATCC 29213 [5]; [10]): 39.5 mm
MBC (P. acnes NCTC 737 [6]): 3.9 µg/mL (≈ 12.1 µM)
MIC/MBC ratio (P. acnes NCTC 737 [6]; P. acnes NCTC 737): 0.25
activity against S. aureus ATCC 29213 (in words) (S. aureus ATCC 29213 [7]): strongly so
MIC (S. aureus ATCC 29213 [7]; ATCC29213, 24 h, pH 7.2): 0.98 µg/mL (≈ 3.04 µM)
zone of inhibition at 200 µg/disc (P. acnes NCTC 737 [8]; read-out: DDA + lipid): 34.7 mm
zone of inhibition at 200 µg/disc (P. acnes NCTC 737 [8]; read-out: DDA + salt): 71.2 mm

CC(C)(C)C1=CC(=O)C(=O)C(C(C)(C)C)=C1 [3,5-di-t-butyl-o-benzoquinone]
MIC/MBC ratio (S. aureus ATCC 29213 [1]): 1
MBC (S. aureus ATCC 29213 [1]; ATCC29213, read-out: MBC): 7.8 µg/mL (≈ 35.4 µM)
zone of inhibition at 200 µg/disc (S. aureus ATCC 29213 [2]; S. aureus ATCC 29213, Tween 80 at 1% v/v, 200 μg per disc (thymoquinone 50 μg, 2,6-dimethoxy-p-benzoquinone 100 μg), read-out: DDA + lipid): 17.4 mm
zone of inhibition at 200 µg/disc (S. aureus ATCC 29213 [2]; S. aureus ATCC 29213, defibrinated horse blood 5% v/v, 200 μg per disc (thymoquinone 50 μg, 2,6-dimethoxy-p-benzoquinone 100 μg), read-out: DDA + blood): 15.9 mm
zone of inhibition at 200 µg/disc (S. aureus ATCC 29213 [2]; S. aureus ATCC 29213, sodium chloride 100 mM, 200 μg per disc (thymoquinone 50 μg, 2,6-dimethoxy-p-benzoquinone 100 μg), read-out: DDA + salt): 23 mm
zone of inhibition at 200 µg/disc (P. acnes NCTC 737 [3]; NCTC737, P. acnes NCTC 737, unsupplemented agar, 200 μg per disc (2,6-dimethoxy-p-benzoquinone 100 μg), read-out: DDA (diameter of zone of inhibition)): 31.8 mm
MIC (P. acnes NCTC 737 [4]; NCTC737, P. acnes NCTC 737, Wilkins-Chalgren broth pH 6.0, anaerobic, 37° C., 72 hours, read-out: MIC): 15.6 µg/mL (≈ 70.8 µM)
zone of inhibition at 200 µg/disc (S. aureus ATCC 29213 [5]; ATCC29213, S. aureus ATCC 29213, unsupplemented agar, 200 μg per disc (thymoquinone 50 μg, 2,6-dimethoxy-p-benzoquinone 100 μg), read-out: DDA (diameter of zone of inhibition)): 23.4 mm
MBC (P. acnes NCTC 737 [6]; P. acnes NCTC 737, read-out: MBC): 15.6 µg/mL (≈ 70.8 µM)
MIC/MBC ratio (P. acnes NCTC 737 [6]; P. acnes NCTC 737): 1
MIC (S. aureus ATCC 29213 [7]; ATCC29213, S. aureus ATCC 29213, Mueller-Hinton broth pH 7.2, aerobic, 37° C., 24 hours, read-out: MIC): 7.8 µg/mL (≈ 35.4 µM)
zone of inhibition at 200 µg/disc (P. acnes NCTC 737 [8]; P. acnes NCTC 737, Tween 80 at 1% v/v, 200 μg per disc (2,6-dimethoxy-p-benzoquinone 100 μg), read-out: DDA + lipid): 26.4 mm
zone of inhibition at 200 µg/disc (P. acnes NCTC 737 [8]; P. acnes NCTC 737, sodium chloride 100 mM, 200 μg per disc (2,6-dimethoxy-p-benzoquinone 100 μg), read-out: DDA + salt): 40.5 mm

O=C1C=CC(=O)C(Cl)=C1 [2-chloro-p-benzoquinone]
MIC/MBC ratio (S. aureus ATCC 29213 [1]): 1
MBC (S. aureus ATCC 29213 [1]; ATCC29213): 31.2 µg/mL (≈ 219 µM)
zone of inhibition at 200 µg/disc (S. aureus ATCC 29213 [2]; read-out: DDA + blood): 17.2 mm
zone of inhibition at 200 µg/disc (S. aureus ATCC 29213 [2]; read-out: DDA + lipid): 22.8 mm
zone of inhibition at 200 µg/disc (S. aureus ATCC 29213 [2]; read-out: DDA + salt): 26.2 mm
zone of inhibition at 200 µg/disc (P. acnes NCTC 737 [3]; [9]): 25.8 mm
activity against P. acnes NCTC 737 (in words) (P. acnes NCTC 737 [4]): strongly so
MIC (P. acnes NCTC 737 [4]; NCTC737, 72 h, pH 6): 62.5 µg/mL (≈ 438 µM)
zone of inhibition at 200 µg/disc (S. aureus ATCC 29213 [5]; [10]): 25.3 mm
MBC (P. acnes NCTC 737 [6]): 125 µg/mL (≈ 877 µM)
MIC/MBC ratio (P. acnes NCTC 737 [6]; P. acnes NCTC 737): 0.5
MIC (S. aureus ATCC 29213 [7]; ATCC29213, 24 h, pH 7.2): 31.2 µg/mL (≈ 219 µM)
zone of inhibition at 200 µg/disc (P. acnes NCTC 737 [8]; read-out: DDA + lipid): 31.4 mm
zone of inhibition at 200 µg/disc (P. acnes NCTC 737 [8]; read-out: DDA + salt): 31.7 mm
effect of lipid on antimicrobial activity (P. acnes NCTC 737 [8]; P. acnes NCTC 737, activity increases in the presence of lipid): potentiated
